{
  "source": "patent US10973777B2",
  "about": "“Methods for treatment of interstitial cystitis” (Panag Pharma Inc., priority 2017, dated 2021)",
  "key": {"[1]": {"test_system": "NGF-induced bladder hyper-reflexia", "conditions": "rats; systemic administration; cited from earlier work"}, "LPS-induced cystitis [2]": {"test_system": "LPS-induced cystitis", "experiment": "Local bladder inflammation model, Example 4 (oral Beta-C alone or with MSM), intravital microscopy", "assay_type": "in vivo, female BALB/c mice", "conditions": "for leukocyte adhesion in bladder venules: FIGS. 14, 16; for capillary perfusion quantified through functional capillary density (FCD): FIGS. 15, 17", "protocol": "Laparotomy was then performed to gain access to the bladder and to have a visual confirmation of bladder instillation success. […] This was then followed by an insertion of a P10 catheter into the urethra. […] LPS solution (150 μg/ml) was slowly instilled and held in the bladder for 30 minutes. The animal was then rotated on the heating pad at a halfway point to ensure that all sides of bladder were equally exposed to LPS.\nAnimals and local bladder inflammation model were as described hereinabove in Example 2. The groups were as follows:\nIn the oral gavage groups, the mice were treated with 100 mg/kg beta-C or 100 mg/kg beta-C in 100 mg/kg methylsulfonylmethane (MSM) by gavage. In groups other than the Healthy Animal Control administered oral beta-C, the administration was 60 minutes prior to LPS exposure. LPS (local) was provided as detailed hereinabove in Example 2. Intravesical MSM was provided similar to as detailed hereinabove in Example 1 for DMSO. Leukocyte adherence, leukocyte rolling and functional capillary density were measured using the techniques as described hereinabove in Example 2. Results were assessed using the statistical methods described hereinabove in Example 2."}, "LPS-induced cystitis [3]": {"test_system": "LPS-induced cystitis", "experiment": "Systemic (endotoxemia-induced) bladder inflammation model, intravital microscopy of the bladder", "conditions": "LPS 10 mg/kg i.p."}, "[4]": {"test_system": "inflammatory and neuropathic pain", "conditions": "mouse models of inflammatory and neuropathic pain; cited from earlier work"}, "LPS-induced cystitis [5]": {"test_system": "LPS-induced cystitis", "experiment": "Local bladder inflammation model, Example 2 (instillation), intravital microscopy of the bladder", "assay_type": "in vivo, female BALB/c mice", "conditions": "LPS 150 μg/ml instilled 30 min, then instillation, BCP 100 mg/kg; for leukocyte rolling in bladder venules: FIG. 10; for leukocyte adhesion in bladder venules: FIGS. 9 and 12; for capillary perfusion quantified through functional capillary density (FCD): FIGS. 11 and 13"}, "LPS-induced cystitis [6]": {"test_system": "LPS-induced cystitis", "experiment": "Electronic von Frey aesthesiometry, Example 5", "assay_type": "in vivo, female BALB/c mice", "conditions": "oral BCP 100 mg/kg 60 minutes prior to LPS; T0 vs T1; FIG. 26", "protocol": "(§1) Studies were carried out to investigate the anesthetic effect of oral administration of Beta-C. Animals and local bladder inflammation model were as described hereinabove in Example 2. The groups were as follows:\n(§2) In the oral gavage groups, the mice were treated with 100 mg/kg beta-C by gavage. In the LPS group administered oral beta-C, the administration was 60 minutes prior to LPS exposure. LPS (local) was provided as detailed hereinabove in Example 2.\nThis was a quantified pain assessment that measures the amount of force applied in grams, before an animal reacts (e.g. withdraws) to the noxious stimulus. This quantification allows for accurate detection of pain relief effectiveness of a treatment. Healthy animals were scored before any treatments or cystitis induction to set an individual baseline for each specimen. The animals were also scored after the cystitis was induced and the treatment effect could be measured. Each individual animal was compared to itself before the induction, as well as a summarized group comparison was performed."}, "[7]": {"conditions": "compared with procaine; cited from earlier work"}, "LPS-induced cystitis [8]": {"test_system": "LPS-induced cystitis", "experiment": "Pain assessment scoring (behavioural), Example 5", "assay_type": "in vivo, female BALB/c mice", "protocol": "as §1, §2\nHealthy animals were scored behaviourally to set an individual baseline for each specimen. Animals were then anesthetized with isoflurane and given LPS instillation to induce cystitis-like conditions in bladder. After the induction, animals were then woken up and allowed to normally explore/feed themselves in their cage under observation. Changes in behaviour and appearance (i.e. breathing rate, posture, motor activity, eye opening) were then scored again. Each behavioural parameter received a possible maximum score of 10, totaling to a possible maximum of 40. The minimum score possible is a 0, which implies that the parameter is unaffected as a pre-existing condition. Breathing Rate—each decrease in cycle warrants an increase in score. Opening of the eyes—0 complete opening, 5 half opening, 10 fully closed, and 2 and 7 are intermediate positions. Posture—no change is 0, full rounded back OR limp is 10. Intermediate postures gain intermediate scores. Motor activity—activity (exploring, moving, grooming) within 20 seconds. e.g. no movement for 10 seconds (=50%)=5 points; no movement for 2 seconds (=10%)=1 point. The scoring system is based on that reported by Eschalier et al.^37 but has the additional parameter of motor activity."}, "severe IC": {"test_system": "severe IC", "conditions": "patients with severe IC; intravesical DMSO; cited from earlier work"}, "LPS-induced cystitis [9]": {"test_system": "LPS-induced cystitis", "experiment": "Local (endotoxin-induced) bladder inflammation model, Example 1, intravital microscopy of the bladder", "conditions": "LPS 100 μg/ml instilled 30 min, then drug instillation (DMSO 40%)"}, "interstitial cystitis [10]": {"test_system": "interstitial cystitis", "conditions": "clinical case studies for IC; cited from earlier work"}, "interstitial cystitis [11]": {"test_system": "interstitial cystitis", "conditions": "patients with IC; oral therapy; cited from earlier work"}, "[12]": {"conditions": "healthy animals (no LPS) administered oral Beta-C 100 mg/kg"}},
  "note": "“Also recorded” adds a separate entry of the source.",
  "data": [
    {"compound": "CCCCC/C=C\\C/C=C\\C/C=C\\C/C=C\\CCCC(=O)NCCO", "note": "[AEA, N-arachidonoylethanolamine]", "values": [
      {"measurement": "NGF-induced bladder hyper-reflexia and reduction of micturition threshold", "setting": "[1]", "value": "attenuated"}
    ]},
    {"compound": "C=C1CC/C=C(\\C)CC[C@@H]2[C@@H]1CC2(C)C", "note": "[Beta-C, beta-caryophyllene]", "values": [
      {"measurement": "leukocyte adhesion in bladder venules", "setting": "LPS-induced cystitis [2]; LPS-induced cystitis, oral gavage 100 mg/kg Beta-C (with or without 100 mg/kg MSM) 60 minutes prior to LPS", "value": "significant decrease in the number of adherent leukocytes"},
      {"measurement": "capillary perfusion quantified through functional capillary density (FCD)", "setting": "LPS-induced cystitis [2]; LPS-induced cystitis, oral gavage 100 mg/kg Beta-C (with or without 100 mg/kg MSM) 60 minutes prior to LPS, listed as BCP", "value": "no significant differences were observed in the treatment group; also recorded: did not significantly improve FCD"},
      {"measurement": "leukocyte adhesion in bladder venules", "setting": "LPS-induced cystitis [2]; [12]", "value": "did not produce any significant changes in leukocyte adherence"},
      {"measurement": "capillary perfusion quantified through functional capillary density (FCD)", "setting": "LPS-induced cystitis [2]; [12]", "value": "significant improvement in functional capillary density"},
      {"measurement": "capillary perfusion quantified through functional capillary density (FCD)", "setting": "LPS-induced cystitis [2]; healthy animals (no LPS) administered oral Beta-C 100 mg/kg, listed as BCP", "value": "significant improvement in FCD"},
      {"measurement": "leukocyte adhesion in bladder venules", "setting": "LPS-induced cystitis [3]; 100 mg/kg Beta-C injected 15 min after LPS, IVM two hours after treatment, vs LPS, FIG. 1", "value": "significantly decreased the number of adhering leukocytes"},
      {"measurement": "capillary perfusion quantified through functional capillary density (FCD)", "setting": "LPS-induced cystitis [3]; 100 mg/kg Beta-C injected, FIG. 3", "value": "restored perfusion to levels observed in healthy control animals"},
      {"measurement": "leukocyte rolling in bladder venules", "setting": "LPS-induced cystitis [3]; 100 mg/kg Beta-C injected, vs endotoxemia group, FIG. 2", "value": "did not significantly alter the number of rolling leukocytes"},
      {"measurement": "analgesic and anti-inflammatory effects", "setting": "[4]", "value": "analgesic and anti-inflammatory effects"},
      {"measurement": "leukocyte rolling in bladder venules", "setting": "LPS-induced cystitis [5]", "value": "restored the level of leukocyte levels to that of control animals"},
      {"measurement": "leukocyte adhesion in bladder venules", "setting": "LPS-induced cystitis [5]", "value": "significantly decreased the number of adhering leukocytes back to the level of healthy control animals"},
      {"measurement": "leukocyte adhesion in bladder venules", "setting": "LPS-induced cystitis [5]; listed as BCP", "value": "decrease in leukocyte adherence comparable to groups instilled with various levels of DMSO"},
      {"measurement": "capillary perfusion quantified through functional capillary density (FCD)", "setting": "LPS-induced cystitis [5]", "value": "highest overall values for FCD"},
      {"measurement": "capillary perfusion quantified through functional capillary density (FCD)", "setting": "LPS-induced cystitis [5]; listed as BCP", "value": "restored perfusion to levels observed in healthy control animals; also recorded: significant improvement in FCD"},
      {"measurement": "amount of force applied via electronic von Frey aesthesiometer before a response (withdrawal threshold)", "setting": "LPS-induced cystitis [6]", "value": "significant improvement in withdrawal threshold"},
      {"measurement": "local anesthetic actions", "setting": "[7]", "value": "dose-dependent local anesthetic actions comparable to procaine"},
      {"measurement": "behavioural results for eye opening", "setting": "LPS-induced cystitis [8]; oral BCP 100 mg/kg 60 minutes prior to LPS, vs untreated LPS, FIG. 22", "value": "significant improvement"},
      {"measurement": "behavioural results for motor activity", "setting": "LPS-induced cystitis [8]; oral BCP 100 mg/kg 60 minutes prior to LPS, vs untreated LPS, FIG. 23", "value": "Significant improvements"},
      {"measurement": "behavioural results for posture", "setting": "LPS-induced cystitis [8]; oral BCP 100 mg/kg 60 minutes prior to LPS, vs untreated LPS, FIG. 24", "value": "Significant improvements"},
      {"measurement": "total composite score of behavioural results (behavioural pain score)", "setting": "LPS-induced cystitis [8]; oral BCP 100 mg/kg 60 minutes prior to LPS, vs untreated LPS, FIG. 25", "value": "significant reduction in behavioural pain score"},
      {"measurement": "behavioural results for breathing rate", "setting": "LPS-induced cystitis [8]; oral Beta-C 100 mg/kg 60 minutes prior to LPS, T1 vs untreated LPS, FIG. 21", "value": "significant reduction in breathing rate"}
    ]},
    {"compound": "C[S+](C)[O-]", "note": "[DMSO, Dimethyl sulfoxide]", "values": [
      {"measurement": "treatment failure rate", "setting": "severe IC", "value": "high failure rate"},
      {"measurement": "leukocyte rolling in bladder venules", "setting": "LPS-induced cystitis [5]", "value": "did not improve leukocyte rolling"},
      {"measurement": "leukocyte adhesion in bladder venules", "setting": "LPS-induced cystitis [5]", "value": "retained a high level of activated leukocytes"},
      {"measurement": "capillary perfusion quantified through functional capillary density (FCD)", "setting": "LPS-induced cystitis [5]", "value": "did improve perfusion, it did not return perfusion to the levels observed in healthy control animals"},
      {"measurement": "leukocyte adhesion in bladder venules", "setting": "LPS-induced cystitis [9]; FIG. 6", "value": "did not significantly decrease leukocyte adherence"},
      {"measurement": "leukocyte rolling in bladder venules", "setting": "LPS-induced cystitis [9]; FIG. 7", "value": "did not show any significant difference when compared to the endotoxemia group"},
      {"measurement": "capillary perfusion quantified through functional capillary density (FCD)", "setting": "LPS-induced cystitis [9]; FIG. 8", "value": "did improve perfusion, it did not return perfusion to the levels observed in healthy control animals"}
    ]},
    {"compound": "CS(C)(=O)=O", "note": "[Methylsulfonylmethane]", "values": [
      {"measurement": "effective treatment, number of patients suffering from IC", "setting": "interstitial cystitis [10]", "value": "4 out of 6"}
    ]},
    {"compound": "CCCCCCCCCCCCCCCC(=O)NCCO", "note": "[PEA, N-palmitoylethanolamide]", "values": [
      {"measurement": "NGF-induced bladder hyper-reflexia and reduction of micturition threshold", "setting": "[1]", "value": "attenuated"}
    ]},
    {"compound": "pentosan polysulfate [PPS]", "values": [
      {"measurement": "effect of PPS treatment (proportion of patients)", "setting": "interstitial cystitis [11]", "value": "limited to only a quarter of patients"}
    ]}
  ]
}
